The record followed here is US8324346B2, “Bioactive keratin peptides” (Keraplast Technologies, Ltd., priority 2002, dated 2012).

The subject of assay [1] is keratinocytes. The assay is described as follows: Mitogenic effects of crude peptide compositions on keratinocytes (OD 530 nm). The class given is cell-based, human. The conditions noted are these: 5 days of exposure, positive control.
For assay [2], the system named is human dermal fibroblasts. The assay is described as follows: Biological effect of peptide compositions on human dermal fibroblasts (cell proliferation). It counts as cell-based. The conditions noted are these: for increase in cell proliferation: human dermal fibroblasts, positive control. Here is the method: A second set of studies was performed that tested the biological effect of the peptide compositions on human dermal fibroblasts after three and five days of exposure. After three days of exposure, the peptide composition produced a greater than 25% increase in cell proliferation at concentrations between 0.5 and 10 ug/ml. The positive control, […] fibroblast growth factor (bFGF25), produced a greater than 30% increase in cell proliferation. After five days of exposure, peptide compositions at a concentration of 0.5 to 10 ug/ml produced increases in cell proliferation of between 9% and 12%. The positive control produced a greater than 13% increase.
Related in vitro tests confirmed that the mitogenic effect of the peptide compositions on dermal fibroblasts increased with concentration up to nearly 150% of the negative control at 1000 ug/ml concentration. Compositions with greater purity increased the mitogenic effect to over 1000% of the negative control. The positive control in these studies, platelet derived growth factor (PDGF), increased the mitogenic effect to nearly 700% of the negative control.

Assay [3] deals with Normal human adult dermal fibroblasts. As to the kind of experiment: Cell Titer96 Cell Proliferation Assay: mitogenic effects of synthesized peptides on human fibroblasts in culture for 5 days. The settings on record: normalized to baseline controls. The class given is cell-based. Here is the method:
Normal human adult dermal fibroblasts were cultured in fibroblast growth medium (Clonetics™/BioWhittaker, San Diego, Calif., USA). Passage 5 cells were seeded into wells of 96 well plates at 5×10^3 cells/well. Test peptide solutions were prepared at approximately 1.5 mg/ml in sterile water. Small volumes of 0.1N NH4OH were added dropwise to peptide the peptide solutions to completely solubilize the peptides as recommended by the manufacturer (New England Peptide, Inc., Fitchburg, Miss., USA). The volume of NH4OH added to the solution was recorded and used to adjust beginning concentration. Solutions were serially diluted in fibroblast culture medium from 100-0.001 μg/ml, then added to the cells and cultured for 5 days. At day 3, test and control media were removed from each well by vacuum and replaced with fresh test or control solutions. Samples were evaluated in 4 replicate wells. Note in each plate, wells were selected at random to be used as baseline controls to account for any variation in cell seeding between plates. After 5 days, cell proliferation was assessed spectrophotometrically using the Cell Titer96® Cell Proliferation Assay (Promega Corp., Madison, Wis., USA). Absorbance values were normalized to baseline controls and expressed as percent increased (positive values) or decreased (negative values) proliferation.

“EGF25: epidermal growth factor (EGF25), positive control in the keratinocyte studies”: the “increase in keratinocyte proliferation” value in assay [1] was “greater than 25%”.

Consider PDGF, for which, in assay [2] (dermal fibroblasts, concentration not given), the “mitogenic effect, % of the negative control” value is on record as approximately 700%.

“TAPTVD (Consensus peptide) [H2N-TAPTVD-OH]”: in assay [3], the “percent increased (positive values) or decreased (negative values) proliferation, concentration 0.001 ug/mL” value stood at 0.3%; the “percent increased (positive values) or decreased (negative values) proliferation, concentration 0.01 ug/mL” value is recorded as −0.9%; the “percent increased (positive values) or decreased (negative values) proliferation, concentration 0.1 ug/mL” value is listed as −0.5%; the “percent increased (positive values) or decreased (negative values) proliferation, concentration 1 ug/mL” value is given as 2.1%. Besides, in assay [3], the “percent increased (positive values) or decreased (negative values) proliferation, concentration 10 ug/mL” value was determined as 4.0% and the “percent increased (positive values) or decreased (negative values) proliferation, concentration 100 ug/mL” value stood at 6.9%.

For “TLRSP (Consensus peptide) [H2N-TLRSP-OH]”, in assay [3], the “percent increased (positive values) or decreased (negative values) proliferation, concentration 0.001 ug/mL” value was found to be 4.7%; the “percent increased (positive values) or decreased (negative values) proliferation, concentration 0.01 ug/mL” value turned out to be 1.9%; the “percent increased (positive values) or decreased (negative values) proliferation, concentration 0.1 ug/mL” value is on record as 7.7%; the “percent increased (positive values) or decreased (negative values) proliferation, concentration 1 ug/mL” value turned out to be 6.6%. In addition, in assay [3], the “percent increased (positive values) or decreased (negative values) proliferation, concentration 10 ug/mL” value is reported as 14.7% and the “percent increased (positive values) or decreased (negative values) proliferation, concentration 100 ug/mL” value stood at 18.8%.

Consider “VDAAPT (Consensus peptide) [H2N-VDAAPT-OH]”, for which, in assay [3], the “percent increased (positive values) or decreased (negative values) proliferation, concentration 0.001 ug/mL” value was 1.6%; the “percent increased (positive values) or decreased (negative values) proliferation, concentration 0.01 ug/mL” value was found to be 2.9%; the “percent increased (positive values) or decreased (negative values) proliferation, concentration 0.1 ug/mL” value was −3.6%; the “percent increased (positive values) or decreased (negative values) proliferation, concentration 1 ug/mL” value was found to be 4.5%. For the same substance, in assay [3], the “percent increased (positive values) or decreased (negative values) proliferation, concentration 10 ug/mL” value stood at 6.2% and the “percent increased (positive values) or decreased (negative values) proliferation, concentration 100 ug/mL” value is on record as 13.3%.

With “VDTAPT (Consensus peptide) [H2N-VDTAPT-OH]”, in assay [3], the “percent increased (positive values) or decreased (negative values) proliferation, concentration 0.001 ug/mL” value is reported as 9.0%; the “percent increased (positive values) or decreased (negative values) proliferation, concentration 0.01 ug/mL” value came to 4.2%; the “percent increased (positive values) or decreased (negative values) proliferation, concentration 0.1 ug/mL” value turned out to be 6.8%; the “percent increased (positive values) or decreased (negative values) proliferation, concentration 1 ug/mL” value was found to be 2.5%. Further, in assay [3], the “percent increased (positive values) or decreased (negative values) proliferation, concentration 10 ug/mL” value is reported as −0.1% and the “percent increased (positive values) or decreased (negative values) proliferation, concentration 100 ug/mL” value was determined as 4.4%.

As for “VDTAPTV (Consensus peptide) [H2N-VDTAPTV-OH]”, in assay [3], the “percent increased (positive values) or decreased (negative values) proliferation, concentration 0.001 ug/mL” value is recorded as 10.4%; the “percent increased (positive values) or decreased (negative values) proliferation, concentration 0.01 ug/mL” value came out at 7.9%; the “percent increased (positive values) or decreased (negative values) proliferation, concentration 0.1 ug/mL” value was 1.2%; the “percent increased (positive values) or decreased (negative values) proliferation, concentration 1 ug/mL” value came to 0.7%. In addition, in assay [3], the “percent increased (positive values) or decreased (negative values) proliferation, concentration 10 ug/mL” value is listed as 5.5% and the “percent increased (positive values) or decreased (negative values) proliferation, concentration 100 ug/mL” value is on record as −5.5%.

For “VEVDAA (Consensus peptide) [H2N-VEVDAA-OH]”, in assay [3], the “percent increased (positive values) or decreased (negative values) proliferation, concentration 0.001 ug/mL” value worked out at 11.0%; the “percent increased (positive values) or decreased (negative values) proliferation, concentration 0.01 ug/mL” value came to 2.3%; the “percent increased (positive values) or decreased (negative values) proliferation, concentration 0.1 ug/mL” value was −9.0%; the “percent increased (positive values) or decreased (negative values) proliferation, concentration 1 ug/mL” value is on record as −4.7%. Moreover, in assay [3], the “percent increased (positive values) or decreased (negative values) proliferation, concentration 10 ug/mL” value is −1.3% and the “percent increased (positive values) or decreased (negative values) proliferation, concentration 100 ug/mL” value was −9.5%.

Regarding “bFGF25: bovine-derived fibroblast growth factor (bFGF25), positive control”, the “increase in cell proliferation” value in assay [2] (five days of exposure) was “greater than 13%”; in assay [2] (three days of exposure), “greater than 30%”.
